The record followed here is ChEMBL document CHEMBL1128289, “Reductive chemistry of the novel hypoxia-selective cytotoxin 5-[N,N-bis(2-chloroethyl)amino]-2,4-dinitrobenzamide” (J Med Chem, 1995).

One assay concerns CHO-AA8. The assay is described as follows: Cytotoxicity in a growth inhibition assay against aerobic cultures of AA8 cells was determined. It is filed as functional, cell-based, Cricetulus griseus.
The next assay deals with UV4. Briefly: Cytotoxicity in a growth inhibition assay against aerobic cultures of UV4 cells was determined. It is filed as functional, cell-based. To be noted: Cricetulus griseus.

As for `NC(=O)c1cc2c(cc1[N+](=O)[O-])NCCN2CCCl`, the IC50 (commonly the concentration that inhibits the measured activity by half) in the assay on CHO-AA8 (Cricetulus griseus, CHO-AA8) was found to be 730 µM; in the assay on UV4, 49 µM.

`NC(=O)c1cc2c(cc1N)NCCN2CCCl`: the IC50 in the assay on CHO-AA8 (Cricetulus griseus, CHO-AA8) is 6.9 µM; with UV4 it was 0.87 µM.

Regarding `NC(=O)c1cc(N(CCCl)CCCl)c([N+](=O)[O-])cc1[N+](=O)[O-]`, the results for the IC50 in the assay with CHO-AA8 (cho-aa8) and in the assay with UV4 were 1600 µM and 960 µM, respectively.

Turning to `NC(=O)c1cc(N(CCO)CCO)c(N)cc1N`, the IC50 amounted to 2300 µM in the assay with CHO-AA8 (Cricetulus griseus, CHO-AA8) and 3000 µM with UV4.
